Peptide text beside a SMILES is read from it.
What was measured:
Kunming mice [1] = assay: Acute toxicity test, intraperitoneal injection; assay type: in vivo
Description: 1) Main Observation Indicators:
(2) Minimal lethal dose (MLD): a dose that causes death in individual tested animals;
(3) The highest dose of nontoxic reaction (highest nontoxic dose): that is, no observed adverse effect level ([…]), i.e. the highest dose under which no injury is found for animals in a certain period of time;
(4) Minimum toxic reaction dose: minimum dose of toxic reaction in animals: that is the lowest dose of the toxic reaction in animals whose toxic responses are just caused.
(1) Tested animals: Kunming mice, half male and half female (healthy adult, weight 19-20 g);
(2) Subjects: SVHRSP: • a. source: BmK scorpion venom extract purchased from Henan Yichang Xinxin Scorpion Factory (May 28, 2012); • b. Lot No: P160418-CQ455216; • c. Content (or specification): 10 mg/piece; • d. Preservation conditions and preparation methods: −20° C. for long-term preservation, 4° C. for preservation within 7-10 d, and redissolved with millipore water when in use.
(3) Administration Route: respectively ip (intraperitoneal injection) route (the largest volume commonly used in mice ip route administration is 0.1-1.0 ml/20 gBW) the optimal administration doses to the animals (the doses are different, but the administration capacity is identical) are selected according to the route of administration, and 0.2 ml/20 gBW is adopted for the ip administration routes in this experiment.
According to the approximate lethal dose method, list the possible sequences:
the possible maximum tolerance dose and the possible minimum lethal dose of the SVHRSP are estimated according to the acute toxicity test results of the former scorpion venom heat-resistant polypeptide on Kunming mice. Then, a dose sequence table containing several doses is designed according to the 50% incremental method:
The possible lethal dose ranges (115.2, 76.8, 51.2, 34.1 mg/kg) are found from the estimated dose sequence list, where each dose is given to one animal, the minimum lethal dose and the maximum tolerated dose are measured, and then the dose between the two is given to an animal. If the animal under this dose doesn't die, the range between this dose and the minimum lethal dose is the approximate lethal dose range; if the animal under this dose dies, the range between this dose and the maximum tolerance dose is the approximate lethal dose range.

Kunming mice [2] = assay: Acute toxicity test, intraperitoneal injection; assay type: in vivo; conditions: 78.6 mg/kgBW ip
[3] = tested on: lithium-pilocarpine epilepsy model rats; assay: Lithium-pilocarpine refractory epilepsy chronic model, episodes; assay type: in vivo, SD rats; conditions: 300 mg/kg, n = 9
Procedure: (1) Selection and groups of animals that 180 g healthy male SD rats are selected. Lithium-pilocarpine ip (intraperitoneal administration) 300 mg/kg is used to induce temporal lobe epilepsy episodes. After 15 days of acute epilepsy episode, epilepsy rats are randomly divided into a model group and a model administration group. […] The levels of epilepsy are observed and recorded, and graded according to Racine as the evaluation criteria.

In the case of `CC(C)C[C@H](NC(=O)[C@@H](NC(=O)[C@@H](N)CCCCN)C(C)C)C(=O)N[C@@H](CC(N)=O)C(=O)NCC(=O)N1CCC[C@H]1C(=O)N[C@@H](CCC(=O)O)C(=O)N[C@@H](CCC(=O)O)C(=O)N[C@@H](CCC(=O)O)C(=O)N[C@@H](C)C(=O)N[C@@H](C)C(=O)N[C@@H](C)C(=O)N1CCC[C@H]1C(=O)N[C@@H](C)C(=O)N[C@@H](CCC(=O)O)C(=O)O` [SVHRSP] (H-KVLNGPEEEAAAPAE-OH), the “Lethal (%)” value (Kunming mice [1]; 115.2 mg/kgBW ip) is reported as 0%, the “Survival (%)” value (Kunming mice [1]; 115.2 mg/kgBW ip) is reported as 100% and the “Lethal (%)” value (Kunming mice [1]; 172.8 mg/kgBW ip) is reported as 0%. For the same molecule, the “Survival (%)” value (Kunming mice [1]; 172.8 mg/kgBW ip) was 100%, the “Lethal (%)” value (Kunming mice [1]; 500 mg/kgBW ip) was 0% and the “Survival (%)” value (Kunming mice [1]; 500 mg/kgBW ip) was 100%. The “Lethal (%)” value (Kunming mice [1]; 2000 mg/kgBW ip) was 0%, the “Survival (%)” value (Kunming mice [1]; 2000 mg/kgBW ip) was 100% and the “Toxic Reaction” value (Kunming mice [1]; 2000 mg/kgBW ip) was “no any toxic reaction is observed”. For the same molecule, the “ratio of medicinal safety and pharmacodynamic activity (2000/0.05)” value (Kunming mice [1]; ip 2000 mg/kg vs 0.05 mg/kg effective dose) was > 40,000 times, the “maximum non-toxic dose (highest nontoxic dose, no observed adverse effect level)” value (Kunming mice [1]; ip, up to 2000 mg/kg·BW) was “has not reached yet” and the “Lethal (%)” value (Kunming mice [2]) was 0%. The “Survival (%)” value (Kunming mice [2]) was 100%.

With `CCCC(CCC)C(=O)[O-].[Na+]` [sodium valproate] the “Total Episode Averages superimposed ± Standard Deviation” value ([3]; First day) was 2.67 ± 0.85, the “Total Episode Averages superimposed ± Standard Deviation” value ([3]; First eight days) was 15.11 ± 2.73 and the “Total Episode Averages superimposed ± Standard Deviation” value ([3]; First eleven days) was 18.89 ± 3.13. For the same molecule, the “Total Episode Averages superimposed ± Standard Deviation” value ([3]; First fifteen days) was 23.56 ± 3.79, the “Total Episode Averages superimposed ± Standard Deviation” value ([3]; First five days) was 11.67 ± 2.24 and the “Total Episode Averages superimposed ± Standard Deviation” value ([3]; First four days) was 9.56 ± 1.96. For the same molecule, the “Total Episode Averages superimposed ± Standard Deviation” value ([3]; First fourteen days) was 22.67 ± 3.56, the “Total Episode Averages superimposed ± Standard Deviation” value ([3]; First nine days) was 16.33 ± 3.05 and the “Total Episode Averages superimposed ± Standard Deviation” value ([3]; First seven days) was 13.89 ± 2.45. The “Total Episode Averages superimposed ± Standard Deviation” value ([3]; First six days) was 12.67 ± 2.30, the “Total Episode Averages superimposed ± Standard Deviation” value ([3]; First ten days) was 17.55 ± 2.91 and the “Total Episode Averages superimposed ± Standard Deviation” value ([3]; First thirteen days) was 21.78 ± 3.58. The “Total Episode Averages superimposed ± Standard Deviation” value ([3]; First twelve days) was 20.56 ± 3.33 and the “Total Episode Averages superimposed ± Standard Deviation” value ([3]; First two days) was 5.56 ± 1.27.

Reference: patent publication US10442837B2, “Scorpion venom heat-resistant synthetic peptide and applications thereof” (priority 2016, dated 2019)
